The source of these data is ChEMBL document CHEMBL1201862, “PubChem BioAssay data set” (2004).

Structures can show the parent of a compound that is named as a salt.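 Following 48 hours of exposure in 96-well plates, responses at five concentrations were used to interpolate endpoints linearly. Here, GI50 denotes the concentration required for 50% inhibition of growth.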 Active and inactive are the calls of the source. Rule as the data show it: active = GI50 up to about 1.1 µM and inactive = higher.

Some test systems named below: MOLT-4; ACHN; HCC 2998; NCI-H23; RXF 393; OVCAR-3; SNB-19; UO-31; MCF7; LOX IMVI; EKVX; HOP-92; HL-60; SF-295; NCI-H226; SNB-75; RPMI-8226; CCRF-CEM; K562; Hs-578T.
Holding throughout (assay): inhibition of tumour cell growth, NCI panel, 48 h

Turning to `CC1=CC(=O)C[C@]2(C)[C@@H](O)CC(C(C)CO)C[C@@H]12` (stereo not given in full), the GI50 in the assay with MOLT-4, with ACHN, in the assay with HCC 2998, in the assay with NCI-H23, in the assay with RXF 393 and in the assay on OVCAR-3 was > 100 µM (inactive) throughout. Moreover, the GI50 in the assay on SNB-19, with UO-31, in the assay on MCF7, with LOX IMVI, in the assay on EKVX and in the assay with HOP-92 was > 100 µM (inactive) throughout. Moreover, the GI50 with HL-60, in the assay with SF-295, with NCI-H226 and in the assay on SNB-75 was > 100 µM (inactive) in each case.

On to `O=[N+]([O-])C(C(Cl)=C(Cl)Cl)=C(N1CCOCC1)N1CCOCC1`, for which the GI50 is 63.2 µM (inactive) in the assay with MOLT-4; > 100 µM (inactive) in the assay with ACHN; > 100 µM (inactive) in the assay on HCC 2998; > 100 µM (inactive) in the assay with NCI-H23; > 100 µM (inactive) in the assay on RXF 393; > 100 µM (inactive) with OVCAR-3. For the same molecule, the GI50 with SNB-19, with RPMI-8226, in the assay with UO-31, with LOX IMVI, with EKVX and in the assay with HL-60 was > 100 µM (inactive) each time. Moreover, the GI50 with CCRF-CEM is > 100 µM (inactive); in the assay with SF-295 it was > 100 µM (inactive); with NCI-H226 it was > 100 µM (inactive); in the assay on K562 it was > 100 µM (inactive); with SNB-75, 1.14 µM (inactive); with Hs-578T it was 54.2 µM (inactive).

Consider `CCOC(=O)c1ccc(NCc2ccc3oc(=O)c(-c4ccccc4)nc3c2)cc1`, for which the GI50 is 15.1 µM (inactive) in the assay on MOLT-4; 26.6 µM (inactive) in the assay with ACHN; > 100 µM (inactive) with HCC 2998; 19.1 µM (inactive) with NCI-H23; 8.36 µM (inactive) with RXF 393; 18.7 µM (inactive) in the assay on OVCAR-3. In addition, the GI50 was > 100 µM (inactive) in the assay with SNB-19; 27 µM (inactive) in the assay with UO-31; 15.8 µM (inactive) with MCF7; 31.8 µM (inactive) in the assay on LOX IMVI; 52.8 µM (inactive) in the assay with EKVX; 31.2 µM (inactive) in the assay with HOP-92. Besides, the GI50 was 3.94 µM (inactive) with HL-60; 3.46 µM (inactive) with CCRF-CEM; > 100 µM (inactive) with SF-295; 94.2 µM (inactive) with NCI-H226; 22.5 µM (inactive) in the assay on K562; 9.48 µM (inactive) in the assay on SNB-75.

Regarding `CN(C)c1cccc2c(S(=O)(=O)NCCCNCCN)cccc12`, the GI50 was 18.6 µM (inactive) in the assay with MOLT-4; > 100 µM (inactive) in the assay on ACHN; 24 µM (inactive) with HCC 2998; 82.4 µM (inactive) in the assay on NCI-H23; 36.8 µM (inactive) in the assay on RXF 393; 62.5 µM (inactive) in the assay on OVCAR-3. In addition, the GI50 is > 100 µM (inactive) with SNB-19; 56.9 µM (inactive) in the assay on UO-31; 66.8 µM (inactive) in the assay on LOX IMVI; > 100 µM (inactive) in the assay on EKVX; 34.4 µM (inactive) in the assay with HOP-92; 26.1 µM (inactive) in the assay on HL-60. The GI50 in the assay on CCRF-CEM was 22.3 µM (inactive); in the assay on SF-295, 55.2 µM (inactive); with NCI-H226, 64.6 µM (inactive); with K562, 20.8 µM (inactive); with SNB-75 it was 13.6 µM (inactive); with Hs-578T, 22.3 µM (inactive).

As to `C#Cc1cccc(Nc2ncnc3cc(OCCOC)c(OCCOC)cc23)c1` [ERLOTINIB HYDROCHLORIDE], the GI50 was 0.109 µM (active) in the assay on ACHN; 41.7 µM (inactive) in the assay on NCI-H23; < 0.01 µM (active) in the assay on SNB-19; 55.3 µM (inactive) in the assay on RPMI-8226; 3.79 µM (inactive) with UO-31; 4.34 µM (inactive) in the assay with LOX IMVI. Further, the GI50 in the assay on HOP-92 is 4.05 µM (inactive); in the assay with CCRF-CEM it was > 100 µM (inactive); in the assay on SF-295, 16.2 µM (inactive); in the assay on SNB-75, 14.8 µM (inactive); with Hs-578T, 5.01 µM (inactive).

Take `O=C1[C@@H]2C3SC(c4ccccc43)[C@@H]2C(=O)N1c1ccccc1`: the GI50 in the assay with MOLT-4, in the assay with ACHN, with HCC 2998, in the assay on NCI-H23, with RXF 393 and with OVCAR-3 was > 100 µM (inactive) in each case. Moreover, the GI50 in the assay with SNB-19 is 41.9 µM (inactive); in the assay on RPMI-8226, > 100 µM (inactive); with UO-31 it was > 100 µM (inactive); in the assay with LOX IMVI, > 100 µM (inactive); in the assay with EKVX it was > 100 µM (inactive); in the assay with HOP-92 it was > 64.1 µM (inactive). The GI50 was > 100 µM (inactive) in the assay on HL-60; > 100 µM (inactive) in the assay with CCRF-CEM; > 88.9 µM (inactive) in the assay on SF-295; > 100 µM (inactive) in the assay with NCI-H226; > 100 µM (inactive) with K562; 28.6 µM (inactive) in the assay with SNB-75.

As to `CC(=O)OC1COC(n2c(=S)n(-c3ccccc3)c(=O)c3ccccc32)C(OC(C)=O)C1OC(C)=O` (stereo not given), the GI50 is 21 µM (inactive) in the assay with MOLT-4; 25.2 µM (inactive) in the assay on ACHN; 58.2 µM (inactive) in the assay on HCC 2998; 70 µM (inactive) in the assay on NCI-H23; 55.3 µM (inactive) in the assay with RXF 393; 74.6 µM (inactive) in the assay with OVCAR-3. In addition, the GI50 is > 100 µM (inactive) with SNB-19; 22.5 µM (inactive) in the assay on RPMI-8226; 48.9 µM (inactive) in the assay on UO-31; 21.4 µM (inactive) with LOX IMVI; > 100 µM (inactive) in the assay on EKVX; 37.1 µM (inactive) in the assay on HOP-92. Besides, the GI50 was 20.4 µM (inactive) in the assay on HL-60; 32.7 µM (inactive) in the assay with CCRF-CEM; 19.9 µM (inactive) in the assay on SF-295; > 100 µM (inactive) with NCI-H226; 2.51 µM (inactive) with K562; > 100 µM (inactive) in the assay on SNB-75.

Consider `CNC1=CC(=O)C2=C(C1=O)[C@H]1CC[C@]3(C)C(=O)CC[C@H]3[C@@H]1CC2`, for which the GI50 with MOLT-4 was 11.1 µM (inactive); in the assay with ACHN, 21.6 µM (inactive); in the assay with HCC 2998, 16 µM (inactive); in the assay with NCI-H23 it was 5.13 µM (inactive); in the assay on RXF 393, 15.2 µM (inactive); in the assay on OVCAR-3 it was 1.16 µM (inactive). Also, the GI50 in the assay with SNB-19 is 17.7 µM (inactive); in the assay on RPMI-8226 it was 17.3 µM (inactive); in the assay with UO-31, 18.8 µM (inactive); with MCF7, 20.2 µM (inactive); in the assay with LOX IMVI, 4.54 µM (inactive); in the assay on EKVX, 15.3 µM (inactive). The GI50 was 12 µM (inactive) with HOP-92; 9.18 µM (inactive) in the assay with CCRF-CEM; 15.3 µM (inactive) in the assay on SF-295; 12.4 µM (inactive) in the assay with NCI-H226; 12.6 µM (inactive) in the assay with K562; 14.3 µM (inactive) with SNB-75.
